According to patent US10508109B2 (priority 2015, dated 2019):
Structures can show the parent of a compound that is named as a salt. Where two headings read alike, the source gives them in different places.

Assays:
CCD-18Co = assay: Cell-based assay, anti-proliferative activity (Cell Counting Kit-8, 72 hours); settings: Homo sapiens, read-out: IC50 (μM) CCD-18Co
How it was run: (§1)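 Growth inhibition is read by Cell Counting Kit-8 after three days of compound treatment. Test concentrations span 0, 1.5625, 3.125, 6.25, 12.5, 25, 50 and 100 micro-M, and IC50 serves as the anti-proliferative measure.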

PC14 = assay: as above; settings: Homo sapiens, read-out: IC50 (μM) PC14
How it was run: as §1

HCT-116 = assay: as above; settings: Homo sapiens, read-out: IC50 (μM) HCT-116
How it was run: as §1

HFL1 = assay: as above; settings: Homo sapiens, read-out: IC50 (μM) HFL1
How it was run: as §1

SUV39H2 = SUV39H2 (Homo sapiens (Human), UniProt Q9H5I1); settings: read-out: IC50 (μM) Suv 39H2 assay; enzyme assay
Sequence of SUV39H2 (Q9H5I1 whole entry): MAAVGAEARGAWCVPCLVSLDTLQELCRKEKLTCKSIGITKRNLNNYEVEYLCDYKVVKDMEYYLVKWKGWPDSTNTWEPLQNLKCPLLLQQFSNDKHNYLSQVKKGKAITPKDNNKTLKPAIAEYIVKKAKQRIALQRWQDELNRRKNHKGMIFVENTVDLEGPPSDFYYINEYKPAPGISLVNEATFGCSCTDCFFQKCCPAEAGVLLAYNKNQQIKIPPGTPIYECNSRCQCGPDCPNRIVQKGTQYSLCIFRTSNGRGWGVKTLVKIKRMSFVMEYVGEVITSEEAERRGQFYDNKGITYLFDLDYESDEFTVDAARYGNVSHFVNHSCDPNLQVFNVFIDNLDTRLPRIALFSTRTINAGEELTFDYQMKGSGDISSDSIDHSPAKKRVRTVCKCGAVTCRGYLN

A549 = assay: Cell-based assay, anti-proliferative activity (Cell Counting Kit-8, 72 hours); settings: Homo sapiens, read-out: IC50 (μM) A549
How it was run: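 IC50 values come from growth read-outs taken after the cells' exposure to each candidate inhibitor. Cells had been plated in 96-well microtiter plates beforehand.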

[1] = CCD-18Co cells, Cell Counting Kit-8, 72 hours
[2] = PC-14, PC14 cells, Cell Counting Kit-8, 72 hours
[3] = HCT-116 cells, Cell Counting Kit-8, 72 hours
[4] = HFL1 cells, Cell Counting Kit-8, 72 hours
[5] = A549 cells, Cell Counting Kit-8, 72 hours
[6] = CCD-18Co cells, 72 hours, Cell Counting Kit-8
[7] = PC-14, PC14 cells, 72 hours, Cell Counting Kit-8
[8] = HCT-116 cells, 72 hours, Cell Counting Kit-8
[9] = HFL1 cells, 72 hours, Cell Counting Kit-8
[10] = A549 cells, 72 hours, Cell Counting Kit-8

Row | SMILES | IC50 (CCD-18Co; [1]) [µM] | IC50 (PC14; [2]) [µM] | IC50 (HCT-116; [3]) [µM] | IC50 (HFL1; [4]) [µM] | IC50 (SUV39H2) [µM] | IC50 (A549; [5]) [µM] | IC50 (CCD-18Co; [6]) [µM] | IC50 (PC14; [7]) [µM] | IC50 (HCT-116; [8]) [µM] | IC50 (HFL1; [9]) [µM] | IC50 (A549; [10]) [µM] | IC50 (CCD-18Co; CCD-18Co, 72 h) [µM] | IC50 (PC14; PC-14, 72 h) [µM] | IC50 (HCT-116; HCT-116, 72 h) [µM] | IC50 (HFL1; HFL1, 72 h) [µM] | IC50 (A549; A549, 72 h) [µM]
1 | COc1cc(OC)c(-c2cn3ccc(N4CC[C@H](NC(=O)OC(C)(C)C)C4)cc3n2)cc1Cl [Example 44, (S)-tert-butyl (1-(2-(5-chloro-2,4-dimethoxyphenyl)imidazo[1,2-a]pyridin-7-yl)-pyrrolidin-3-yl)carbamate] | 2.2 | 1.6 | 3.4 | 1.1 | 0.00982 | 3 |  |  |  |  |  |  |  |  |  | 
2 | COc1cc(Cl)c(Cl)cc1-c1cn2ccc(N3CCCC3)cc2n1 [Example 233, 2-(4,5-dichloro-2-methoxyphenyl)-7-(pyrrolidin-1-yl)imidazo[1,2-a]-pyridine] |  |  |  |  | 0.085 |  | 2.8 | 1.8 | 2.7 | 2.7 | 2.6 |  |  |  |  | 
3 | COc1cc(OC)c(-c2cn3ccc(-c4ccc(C(=O)NCCCN)cc4)cc3n2)cc1Cl [Example 265, N-(3-aminopropyl)-4-(2-(5-chloro-2,4-dimethoxyphenyl)imidazo-[1,2-a]pyridin-7-yl)benzamide] |  |  |  |  | 0.036 |  | 7.3 | 4.2 | 5.2 | 4.7 | 5.5 |  |  |  |  | 
4 | COC(=O)N1CCN(c2ccn3cc(-c4cc(Cl)c(OC)cc4OCCCN(C)C)nc3c2)CC1 [Example 152, methyl 4-(2-(5-chloro-2-(3-(dimethylamino)propoxy)-4-methoxyphenyl)-imidazo[1,2-a]pyridin-7-yl)piperazine-1-carboxylate] | 5.3 | 2.7 | 7.1 | 1.9 | 0.0199 | 6.4 |  |  |  |  |  |  |  |  |  | 
5 | COc1cc(OC)c(-c2cn3ccc(N4CCCC4)nc3n2)cc1Cl [Example 9, 2-(5-chloro-2,4-dimethoxyphenyl)-7-(pyrrolidin-1-yl)imidazo-[1,2-a]pyrimidine hydrobromide] | 8 | 6.3 | 6.8 | 7.1 | 0.00608 | 8 |  |  |  |  |  |  |  |  |  | 
6 | COc1cc(OC)c(-c2cn3ccc(-c4ccc(NCc5ncc[nH]5)cc4)cc3n2)cc1Cl [Example 270, N-((1H-imidazol-2-yl)methyl)-4-(2-(5-chloro-2,4-dimethoxyphenyl)-imidazo[1,2-a]pyridin-7-yl)aniline] |  |  |  |  | 0.0199 |  | 1.7 | 0.45 | 1 | 0.89 | 0.99 |  |  |  |  | 
7 | COc1cc(OC)c(-c2cn3ccc(N4CC[C@H](NCc5ccc(C)cc5)C4)cc3n2)cc1Cl [Example 305, (S)-1-(2-(5-chloro-2,4-dimethoxyphenyl)imidazo[1,2-a]pyridin-7-yl)-N-(4-methylbenzyl)pyrrolidin-3-amine] |  |  |  |  | 0.0117 |  | 0.82 | 0.99 | 0.59 | 0.67 | 1.1 |  |  |  |  | 
8 | COc1cc(OCCCN(C)C)c(-c2cn3ccc(N4CCC(NC(=O)OC(C)(C)C)CC4)cc3n2)cc1Cl [Example 148, tert-butyl (1-(2-{5-chloro-2-[3-(dimethylamino)propoxy]-4-methoxyphenyl}imidazo[1,2-a]pyridin-7-yl)piperidin-4-yl)carbamate] | 0.78 | 1.4 | 1.3 | 0.53 | 0.0373 | 1.8 |  |  |  |  |  |  |  |  |  | 
9 | COc1cc(OCCCN(C)C)c(-c2cn3ccc(N4CCCNCC4)cc3n2)cc1Cl [Example 209, 3-{2-[7-(1,4-diazepan-1-yl)imidazo[1,2-a]pyridin-2-yl]-4-chloro-5-methoxyphenoxy}-N,N-dimethylpropan-1-amine] | 3.2 | 2.7 | 3.7 | 1.2 | 0.00207 | 3 |  |  |  |  |  |  |  |  |  | 
10 | COc1cc(OC)c(-c2cn3ccc(N4CCC(NP(=O)(OC)OC)CC4)cc3n2)cc1Cl [Example 198, Dimethyl (1-(2-(5-chloro-2,4-dimethoxyphenyl)imidazo[1,2-a]pyridin-7-yl)piperidin-4-yl)phosphoramidate] | 3.5 | 3.7 | 5.7 | 1.6 | 0.00435 | 3.2 |  |  |  |  |  |  |  |  |  | 
11 | COc1cc(OC)c(-c2cn3ccc(-c4ccc(C(=O)NCC(O)CN)cc4)cc3n2)cc1Cl (stereo not drawn) [Example 256, N-(3-amino-2-hydroxypropyl)-4-(2-(5-chloro-2,4-dimethoxyphenyl)-imidazo[1,2-a]pyridin-7-yl)benzamide] |  |  |  |  | 0.0217 |  | 10 | 10 | 10 | 10 | 10 |  |  |  |  | 
12 | COc1cc(OC)c(-c2cn3ccc(N4CCN(c5cccc(F)n5)CC4)cc3n2)cc1Cl [Example 281, 2-(5-chloro-2,4-dimethoxyphenyl)-7-(4-(6-fluoropyridin-2-yl)piperazin-1-yl)imidazo[1,2-a]pyridine] |  |  |  |  | 0.0988 |  | 0.83 | 0.9 | 0.82 | 0.76 | 1.2 |  |  |  |  | 
13 | COc1cc(OC)c(-c2cn3ccc(N4CCNCC4)nc3n2)cc1Cl [Example 153, 2-(5-chloro-2,4-dimethoxyphenyl)-7-(piperazin-1-yl)imidazo[1,2-a]-pyrimidine] | 11 | 4.1 | 8.6 | 5.3 | 0.0526 | 10 |  |  |  |  |  |  |  |  |  | 
14 | COc1cc(OC)c(-c2cn3ccc(N4CCC(O)C4)cc3n2)cc1Br (stereo not drawn) [Example 7, 1-(2-(5-bromo-2,4-dimethoxyphenyl)imidazo[1,2-a]pyridin-7-yl)pyrrolidin-3-ol] |  |  |  |  | 0.00544 |  |  |  |  |  |  | 7.6 | 6.1 | 7 | 6.8 | 6.9
15 | COc1cc(OC)c(-c2cn3ccc(N[C@H]4CC[C@H](NCc5ccccc5)CC4)cc3n2)cc1Cl [Example 291, N^1-benzyl-N^4-(2-(5-chloro-2,4-dimethoxyphenyl)imidazo[1,2-a]pyridin-7-yl)-trans-cyclohexane-1,4-diamine] |  |  |  |  | 0.041 |  | 0.76 | 0.71 | 0.67 | 0.93 | 0.72 |  |  |  |  | 
16 | COc1cc(OC)c(-c2cn3ccc(N4CCN(S(=O)(=O)C(C)C)CC4)nc3n2)cc1Cl [Example 205, 2-(5-chloro-2,4-dimethoxyphenyl)-7-[4-(isopropylsulfonyl)piperazin-1-yl]imidazo[1,2-a]pyrimidine] | 3.1 | 0.62 | 1.9 | 2 | 0.0291 | 1.2 |  |  |  |  |  |  |  |  |  | 
17 | COc1cc(OC)c(-c2cn3ccc(N4CCN(c5ncccc5C#N)CC4)cc3n2)cc1Cl [Example 283, 2-(4-(2-(5-chloro-2,4-dimethoxyphenyl)imidazo[1,2-a]pyridin-7-yl)-piperazin-1-yl)nicotinonitrile] |  |  |  |  | 0.0141 |  | 0.45 | 0.68 | 0.42 | 0.69 | 0.66 |  |  |  |  | 
18 | COc1cc(OC)c(-c2cn3ccc(N4CCN(C(=O)C5CCCC5)CC4)nc3n2)cc1Cl [Example 243, (4-(2-(5-chloro-2,4-dimethoxyphenyl)imidazo[1,2-a]pyrimidin-7-yl)-piperazin-1-yl)(cyclopentyl)methanone] |  |  |  |  | 0.0183 |  | 6.1 | 3.3 | 5.8 | 4.8 | 4.7 |  |  |  |  | 
19 | COc1cc(OC)c(-c2cn3ccc(N4CCC(NC(C)=O)C4)cc3n2)cc1Cl (stereo not drawn) [Example 37, N-(1-(2-(5-chloro-2,4-dimethoxyphenyl)imidazo[1,2-a]pyridin-7-yl)pyrrolidin-3-yl)acetamide] | 11 | 8.2 | 12 | 5.4 | 0.00435 | 14 |  |  |  |  |  |  |  |  |  | 
20 | COc1cc(OC)c(-c2cn3cc(Br)c(N4CCNCC4)nc3n2)cc1Cl [Example 220, 6-bromo-2-(5-chloro-2,4-dimethoxyphenyl)-7-(piperazin-1-yl)imidazo[1,2-a]pyrimidine] |  |  |  |  | 0.0262 |  | 3.1 | 2.4 | 2.4 | 3.1 | 2.6 |  |  |  |  | 
21 | COc1cc(OC)c(-c2cn3ccc(N4CCN(CCN5CCNCC5)CC4)cc3n2)cc1Cl [Example 142, 2-(5-chloro-2,4-dimethoxyphenyl)-7-(4-(2-(piperazin-1-yl)ethyl)piperazin-1-yl)imidazo-[1,2-a]pyridine] | 7.8 | 8.7 | 8.2 | 7.1 | 0.00785 | 6.6 |  |  |  |  |  |  |  |  |  | 
